Laboratory results reported in ChEMBL document CHEMBL5506055, “Hit-to-Lead Optimization of the Natural Product Oridonin as Novel NLRP3 Inflammasome Inhibitors with Potent Anti-Inflammation Activity” (J Med Chem, 2024).

Columns and labels:
[1] = biological target: NACHT, LRR and PYD domains-containing protein 3 (Mus musculus, UniProt Q8R4B8); experiment: Inhibition of NLRP3 inflammasome activation in LPS/ATP-induced C57BL/6 mouse BMDMs assessed as reduction in IL-1beta secretion preincubated with LPS for 4 hrs followed by compound addition for 30 mins and further stimulated with ATP for 30 mins by ELISA; assay type: cell-based, BMDM
NACHT, LRR and PYD domains-containing protein 3, sequence (Q8R4B8 whole entry, the tested form may be a part): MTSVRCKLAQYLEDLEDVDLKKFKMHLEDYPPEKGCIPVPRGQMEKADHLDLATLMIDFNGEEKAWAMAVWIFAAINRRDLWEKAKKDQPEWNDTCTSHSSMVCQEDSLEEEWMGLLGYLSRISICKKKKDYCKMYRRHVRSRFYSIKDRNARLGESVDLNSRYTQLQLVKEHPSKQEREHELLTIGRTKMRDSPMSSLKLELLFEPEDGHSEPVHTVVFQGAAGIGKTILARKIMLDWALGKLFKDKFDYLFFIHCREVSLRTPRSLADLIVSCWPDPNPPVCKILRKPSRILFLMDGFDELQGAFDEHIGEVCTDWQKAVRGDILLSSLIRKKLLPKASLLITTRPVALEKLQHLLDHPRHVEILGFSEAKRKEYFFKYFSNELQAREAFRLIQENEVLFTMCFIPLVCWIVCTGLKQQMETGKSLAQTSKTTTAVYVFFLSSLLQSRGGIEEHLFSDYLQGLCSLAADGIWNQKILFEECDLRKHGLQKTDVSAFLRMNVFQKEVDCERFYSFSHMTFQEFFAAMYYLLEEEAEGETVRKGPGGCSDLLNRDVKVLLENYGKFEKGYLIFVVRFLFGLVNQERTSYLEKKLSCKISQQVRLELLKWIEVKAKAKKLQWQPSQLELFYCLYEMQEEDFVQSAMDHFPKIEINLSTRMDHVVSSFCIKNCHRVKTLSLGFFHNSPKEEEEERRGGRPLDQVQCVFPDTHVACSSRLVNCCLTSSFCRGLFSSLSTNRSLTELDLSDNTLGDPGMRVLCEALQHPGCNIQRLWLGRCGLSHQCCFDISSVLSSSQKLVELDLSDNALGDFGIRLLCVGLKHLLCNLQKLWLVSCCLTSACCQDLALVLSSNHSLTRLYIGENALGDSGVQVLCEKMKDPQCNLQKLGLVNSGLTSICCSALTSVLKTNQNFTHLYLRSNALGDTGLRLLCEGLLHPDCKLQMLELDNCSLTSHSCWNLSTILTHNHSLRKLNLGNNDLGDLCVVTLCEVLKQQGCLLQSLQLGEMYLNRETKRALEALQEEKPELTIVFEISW

[2] = biological target: NACHT, LRR and PYD domains-containing protein 3 (Mus musculus) (UniProt Q8R4B8); experiment: Inhibition of NLRP3 inflammasome activation in LPS/ATP-induced C57BL/6 mouse BMDMs assessed as reduction in IL-1beta secretion at 100 nM preincubated with LPS for 4 hrs followed by compound addition for 30 mins and further stimulated with ATP for 30 mins by ELISA relative to control; assay type: cell-based; conditions: BMDM, time 1.0 hrs
NACHT, LRR and PYD domains-containing protein 3 (Mus musculus), sequence (Q8R4B8 whole entry, the tested form may be a part): as above

[3] = biological target: NACHT, LRR and PYD domains-containing protein 3 (Mus musculus) (UniProt Q8R4B8); experiment: Inhibition of NLRP3 inflammasome activation in LPS/ATP-induced C57BL/6 mouse BMDMs assessed as reduction in IL-1beta secretion at 500 nM preincubated with LPS for 4 hrs followed by compound addition for 30 mins and further stimulated with ATP for 30 mins by ELISA relative to control; assay type: cell-based; conditions: BMDM, time 1.0 hrs
[4] = biological target: NACHT, LRR and PYD domains-containing protein 3 (Mus musculus) (UniProt Q8R4B8); experiment: Inhibition of NLRP3 inflammasome activation in LPS/ATP-induced C57BL/6 mouse BMDMs assessed as reduction in IL-1beta secretion at 200 nM preincubated with LPS for 4 hrs followed by compound addition for 30 mins and further stimulated with ATP for 30 mins by ELISA relative to control; assay type: cell-based; conditions: BMDM, time 1.0 hrs
[5] = biological target: hERG (KCNH2) (Homo sapiens, UniProt Q12809); experiment: Inhibition of human ERG expressed in CHO cells at 40 uM relative to control; assay type: toxicity, cell-based; conditions: CHO cells that express human ERG
hERG (KCNH2), sequence (Q12809 whole entry): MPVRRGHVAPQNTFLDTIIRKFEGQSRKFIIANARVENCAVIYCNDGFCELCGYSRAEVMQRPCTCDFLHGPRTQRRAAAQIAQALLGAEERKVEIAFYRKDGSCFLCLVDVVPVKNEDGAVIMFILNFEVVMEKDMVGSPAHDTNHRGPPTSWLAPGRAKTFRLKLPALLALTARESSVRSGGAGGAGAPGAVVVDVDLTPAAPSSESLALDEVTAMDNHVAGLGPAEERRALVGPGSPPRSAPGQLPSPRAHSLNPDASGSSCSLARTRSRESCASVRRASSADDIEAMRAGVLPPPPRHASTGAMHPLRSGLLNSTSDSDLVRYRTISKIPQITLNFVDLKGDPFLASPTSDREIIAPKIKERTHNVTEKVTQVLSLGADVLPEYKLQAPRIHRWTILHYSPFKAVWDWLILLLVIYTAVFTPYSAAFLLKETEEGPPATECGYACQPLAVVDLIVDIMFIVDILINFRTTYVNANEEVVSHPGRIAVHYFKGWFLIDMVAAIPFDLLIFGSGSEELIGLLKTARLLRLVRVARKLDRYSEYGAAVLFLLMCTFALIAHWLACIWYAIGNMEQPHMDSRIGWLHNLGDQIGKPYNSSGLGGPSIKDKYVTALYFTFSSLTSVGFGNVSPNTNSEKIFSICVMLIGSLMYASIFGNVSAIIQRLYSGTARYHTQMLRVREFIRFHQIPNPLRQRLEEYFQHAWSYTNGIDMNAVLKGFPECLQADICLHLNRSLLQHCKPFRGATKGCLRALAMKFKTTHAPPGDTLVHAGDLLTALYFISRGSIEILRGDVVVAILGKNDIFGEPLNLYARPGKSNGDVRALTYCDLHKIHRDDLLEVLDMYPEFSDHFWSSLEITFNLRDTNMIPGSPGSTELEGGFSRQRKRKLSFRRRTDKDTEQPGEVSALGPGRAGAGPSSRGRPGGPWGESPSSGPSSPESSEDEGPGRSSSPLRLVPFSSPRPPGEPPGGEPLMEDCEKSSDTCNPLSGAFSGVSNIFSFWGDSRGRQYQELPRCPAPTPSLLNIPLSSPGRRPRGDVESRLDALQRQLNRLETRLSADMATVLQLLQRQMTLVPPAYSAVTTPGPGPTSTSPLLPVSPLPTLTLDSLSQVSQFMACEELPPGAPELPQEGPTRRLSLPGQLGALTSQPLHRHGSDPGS

| SMILES | IC50 [1] [nM] | inhibition [2] [%] | inhibition [3] [%] | inhibition [4] [%] | inhibition at 40 µM [5] [%] |
| --- | --- | --- | --- | --- | --- |
| C=C1C(=O)[C@]23[C@H](O)[C@H]1CC[C@H]2[C@]12C=CCC(C)(C)[C@H]1[C@H](O)[C@@]3(OCc1nccs1)OC2 | 1890 | 46.2 | 63.2 | 56.7 |  |
| C=C1C(=O)[C@]23[C@H](O)[C@H]1CC[C@H]2[C@]12C=CCC(C)(C)[C@H]1[C@H](O)[C@@]3(OCCC(=O)NC1CCOCC1)OC2 | 292 | 18.5 | 66.2 | 36.4 |  |
| C=C1C(=O)[C@]23[C@H](O)[C@H]1CC[C@H]2[C@]12C=CCC(C)(C)[C@H]1[C@H](O)[C@@]3(OCCC(=O)NC1CC1)OC2 | 242 | 33.3 | 65.1 | 38 |  |
| C=C1C(=O)[C@]23[C@H](O)[C@H]1CC[C@H]2[C@]12C=CCC(C)(C)[C@H]1[C@H](O)[C@@]3(O)OC2 |  | 30.3 | 64.3 | 45.3 |  |
| C=C1C(=O)[C@]23[C@H](O)[C@H]1CC[C@H]2[C@]12C=CCC(C)(C)[C@H]1[C@H](O)[C@@]3(OCCC(=O)N1CCCC1)OC2 | 161 | 36.4 | 79.1 | 55.9 |  |
| C=C1C(=O)[C@]23[C@H](O)[C@H]1CC[C@H]2[C@@]12CO[C@]3(O)[C@@H](O)[C@@H]1C(C)(C)CC[C@@H]2O [ORIDONIN] | 780 | 0.2 | 41.2 | 14.3 |  |
| C=C1C(=O)[C@]23[C@H](O)[C@H]1CC[C@H]2[C@]12C=CCC(C)(C)[C@H]1[C@H](O)[C@@]3(OCCC(=O)NC(C)C)OC2 | 90.6 | 56.2 | 84.8 | 63.6 |  |
| C=C1C(=O)[C@]23[C@H](O)[C@H]1CC[C@H]2[C@]12C=CCC(C)(C)[C@H]1[C@H](O)[C@@]3(OCCC(=O)NC)OC2 | 216 | 27.2 | 76.7 | 43.1 |  |
| C=C1C(=O)[C@]23[C@H](O)[C@H]1CC[C@H]2[C@]12C=CCC(C)(C)[C@H]1[C@H](O)[C@@]3(OCCC(=O)N(CCC)CCC)OC2 | 178 | 25.4 | 71.6 | 67.4 |  |
| C=C1C(=O)[C@]23[C@H](O)[C@H]1CC[C@H]2[C@]12C=CCC(C)(C)[C@H]1[C@H](O)[C@@]3(OCCC(=O)NCC(C)C)OC2 | 137 | 40.7 | 79.1 | 59.9 |  |
| C=C1C(=O)[C@]23[C@H](O)[C@H]1CC[C@H]2[C@]12C=CCC(C)(C)[C@H]1[C@H](O)[C@@]3(OCCC(=O)NCCOC)OC2 | 286 | 18 | 69.9 | 49 |  |
| C=C1C(=O)[C@]23[C@H](O)[C@H]1CC[C@H]2[C@]12C=CCC(C)(C)[C@H]1[C@H](O)[C@@]3(OCCCC(=O)O)OC2 | 81.7 | 57.1 | 83 | 68.7 |  |
| C=C1C(=O)[C@]23[C@H](O)[C@H]1CC[C@H]2[C@]12C=CCC(C)(C)[C@H]1[C@H](O)[C@@]3(OCc1nc(-c3ccccc3)cs1)OC2 | 80.5 | 60.9 | 93.9 | 79.6 |  |
| C=C1C(=O)[C@]23[C@H](O)[C@H]1CC[C@H]2[C@]12C=CCC(C)(C)[C@H]1[C@H](O)[C@@]3(OCCC(=O)N1CCCCC1)OC2 | 147 | 43.7 | 82.1 | 52.4 |  |
| C=CCNC(=O)CCO[C@@]12OC[C@]3(C=CCC(C)(C)[C@H]3[C@@H]1O)[C@@H]1CC[C@H]3C(=C)C(=O)[C@]12[C@@H]3O | 102 | 52.6 | 93.7 | 62.1 |  |
| COc1cc(N)c(Cl)cc1C(=O)NC1CCN(CCCOc2ccc(F)cc2)CC1OC (stereo unspecified) [CISAPRIDE] |  |  |  |  | 98.7 |
| C=C1C(=O)[C@]23[C@H](O)[C@H]1CC[C@H]2[C@]12C=CCC(C)(C)[C@H]1[C@H](O)[C@@]3(OCC(=O)O)OC2 | 406 | 12.9 | 55.4 | 25.5 |  |
| C=C1C(=O)[C@]23[C@H](O)[C@H]1CC[C@H]2[C@]12C=CCC(C)(C)[C@H]1[C@H](O)[C@@]3(OCCC(=O)NCCC)OC2 | 283 | 20.3 | 60 | 47.2 |  |
| C=C1C(=O)[C@]23[C@H](O)[C@H]1CC[C@H]2[C@]12C=CCC(C)(C)[C@H]1[C@H](O)[C@@]3(OCCC(=O)N(C)C)OC2 | 103 | 56.7 | 89 | 78.2 |  |
| C=C1C(=O)[C@]23[C@H](O)[C@H]1CC[C@H]2[C@]12C=CCC(C)(C)[C@H]1[C@H](O)[C@@]3(OCCC(=O)NC1CCCC1)OC2 | 137 | 42.3 | 84.7 | 56 |  |
| C=C1C(=O)[C@]23[C@H](O)[C@H]1CC[C@H]2[C@]12C=CCC(C)(C)[C@H]1[C@H](O)[C@@]3(OCCCCCc1ccccc1)OC2 |  | 13.3 | 63.1 | 44.6 |  |
| C=C1C(=O)[C@]23[C@H](O)[C@H]1CC[C@H]2[C@]12C=CCC(C)(C)[C@H]1[C@H](O)[C@@]3(OCCC(=O)N1CCN(C)CC1)OC2 | 98.5 | 45 | 85.3 | 60.3 |  |
| C=C1C(=O)[C@]23[C@H](O)[C@H]1CC[C@H]2[C@]12C=CCC(C)(C)[C@H]1[C@H](O)[C@@]3(OCCC(=O)NC1CCCCC1)OC2 | 194 | 36.5 | 74.1 | 40.6 |  |

The next lines start with results.

| IC50 [1] [nM] | inhibition [2] [%] | inhibition [3] [%] | inhibition [4] [%] | SMILES | inhibition at 40 µM [5] [%] |
| --- | --- | --- | --- | --- | --- |
| 100 | 47.3 | 77.3 | 56 | C=C1C(=O)[C@]23[C@H](O)[C@H]1CC[C@H]2[C@]12C=CCC(C)(C)[C@H]1[C@H](O)[C@@]3(OCc1ccncc1)OC2 |  |
| 99.3 | 50.6 | 89.5 | 83 | C=C1C(=O)[C@]23[C@H](O)[C@H]1CC[C@H]2[C@]12C=CCC(C)(C)[C@H]1[C@H](O)[C@@]3(OCc1cnco1)OC2 |  |
|  | 42.5 | 88.1 | 70.1 | C=C1C(=O)[C@]23[C@H](O)[C@H]1CC[C@H]2[C@]12C=CCC(C)(C)[C@H]1[C@H](O)[C@@]3(OCc1ccccc1)OC2 |  |
| 232 | 24.5 | 68.4 | 44.5 | C=C1C(=O)[C@]23[C@H](O)[C@H]1CC[C@H]2[C@]12C=CCC(C)(C)[C@H]1[C@H](O)C3(OCc1cccnc1)OC2 (single isomer, unassigned) |  |
|  | 24 | 66.6 | 48.4 | C=C1C(=O)[C@]23[C@H](O)[C@H]1CC[C@H]2[C@]12C=CCC(C)(C)[C@H]1[C@H](O)[C@@]3(OCCCc1ccccc1)OC2 |  |
|  | 44.8 | 72.4 | 58.7 | C=C1C(=O)[C@]23[C@H](OCc4ccc(Cl)cc4)[C@H]1CC[C@H]2[C@]12C=CCC(C)(C)[C@H]1[C@H](O)[C@@]3(O)OC2 |  |
|  | 45.1 | 85.5 | 68 | C=C1C(=O)[C@]23[C@H](OCc4ccccc4)[C@H]1CC[C@H]2[C@]12C=CCC(C)(C)[C@H]1[C@H](O)[C@@]3(O)OC2 |  |
|  | 31.3 | 66.1 | 46.5 | C=C1C(=O)[C@]23[C@H](O)[C@H]1CC[C@H]2[C@]12C=CCC(C)(C)[C@H]1[C@H](O)[C@@]3(OCC)OC2 |  |
|  | 31.1 | 86.6 | 69.6 | C=C1C(=O)[C@]23[C@H](OCc4ccc(C#N)cc4)[C@H]1CC[C@H]2[C@]12C=CCC(C)(C)[C@H]1[C@H](O)[C@@]3(O)OC2 |  |
|  | 35.2 | 85.7 | 47.5 | C=C1C(=O)[C@]23[C@H](O)[C@H]1CC[C@H]2[C@]12C=CCC(C)(C)[C@H]1[C@H](O)[C@@]3(OCc1ccc3ccccc3c1)OC2 |  |
| 97.1 | 44.2 | 96.5 | 78.8 | C=C1C(=O)[C@]23[C@H](O)[C@H]1CC[C@H]2[C@]12C=CCC(C)(C)[C@H]1[C@H](O)[C@@]3(OCc1cocn1)OC2 |  |
|  | 38.8 | 89.2 | 64.7 | C=C1C(=O)[C@]23[C@H](O)[C@H]1CC[C@H]2[C@]12C=CCC(C)(C)[C@H]1[C@H](O)[C@@]3(OCc1ccc(C#N)cc1)OC2 |  |
|  | 33.1 | 71.4 | 50.2 | C=C1C(=O)[C@]23[C@H](OCc4ccc5ccccc5c4)[C@H]1CC[C@H]2[C@]12C=CCC(C)(C)[C@H]1[C@H](O)[C@@]3(O)OC2 |  |
|  | 40.5 | 75.5 | 63.3 | C=C1C(=O)[C@]23[C@H](O)[C@H]1CC[C@H]2[C@]12C=CCC(C)(C)[C@H]1[C@H](O)[C@@]3(OCc1ccc(Cl)cc1)OC2 |  |
|  | 7.3 | 65 | 47.8 | C=C1C(=O)[C@]23[C@H](O)[C@H]1CC[C@H]2[C@]12C=CCC(C)(C)[C@H]1[C@H](O)[C@@]3(OCCCc1ccc(Cl)cc1)OC2 |  |
